Patent US11298314B2, “Injectable composition for localized fat reduction without pain, edema, and side effects, and method for preparing same” (AMI PHARM CO., LTD., priority 2017, dated 2022)

Columns and labels:
[1] = test system: paw of the rats; assay: Rat paw edema; format: in vivo, Sprague Dawley rats; conditions: for degree of edema in words: 2 hours after administration, rat paw; for degree of edema, 1 hour after administration / degree of edema, 2 hours after administration / degree of edema, Immediately after administration: 0.1 ml into rat paw
Experimental: (§1) To evaluate the degree of edema, each test compositions described above were injected into the paw of the rats. Specifically, male Sprague Dawley rats (6 weeks old) were purchased and used after one week of adaptation. The rats (body weight: 170˜200 g) were randomly selected and the thickness of the rat paw were measured with a caliper before the administration of the test compositions. In order to observe the edema, 0.1 ml of PBS and the various test compositions were administered to the paws of the rats. Measurements of the […] were performed by a caliper immediately before the injection, immediately after the injection, and 1 or 2 hours after the injection. In addition, when the thickness was measured, the skin lesion of the injection site was observed by photographing the sole of the paw (using a 4×4 cm scale).
The degree of edema was evaluated as 0 to 4 grades.

[2] = test system: sole of the rat paws; assay: Measurement of skin lesion (erythema) on rat paw; format: in vivo, Sprague Dawley rats; conditions: for skin lesion (erythema) in words: 2 hours after administration;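 for grade of skin lesion (erythema), 1 hour after administration: grades − to ++++ mean no to extremely severe erythema versus before injection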;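 for grade of skin lesion (erythema), 2 hours after administration: grades − to ++++ mean no to extremely severe erythema versus before injection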;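 for grade of skin lesion (erythema), Immediately after administration: grades − to ++++ mean no to extremely severe erythema versus before injection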
Experimental: as §1
The grades of skin lesion were evaluated as 0 to 4 grades.

[3] = test system: tissues of the injected area (rat paw); assay: H&E staining histological test (inflammation) of injected rat paw; format: in vivo, Sprague Dawley rats; conditions: for Inflammation (H&E), BA % (w/v) 1.0: bile acid single composition 1.0% (w/v); for Inflammation (H&E), BA % (w/v) 2.5: bile acid single composition 2.5% (w/v)
Experimental: The tissues of the injected area were dissected, fixed with 10% formalin, and then the specimen was prepared and images were captured using an optical microscope. The degree of inflammation was evaluated as follows.

[4] = Formulation stability of PPC injectable preparations: property, transparency, particle size, pH; conditions: for bile acid/PPC molar ratio below which a substantially stable formulation did not occur: PPC 5.0%; for bile acid concentration at which stable injectable preparations can be made: based on PPC 5.0%
[5] = bile acid single composition 1.0% (w/v)
[6] = bile acid single composition 2.5% (w/v)
[7] = bile acid single composition 5.0% (w/v)
[8] = bile acid single composition 7.5% (w/v)

SMILES	degree of edema, 1 hour after administration [1, 5]	degree of edema, 2 hours after administration [1, 5]	degree of edema, Immediately after administration [1, 5]	degree of edema, 1 hour after administration [1, 6]	degree of edema, 2 hours after administration [1, 6]	degree of edema, Immediately after administration [1, 6]	degree of edema, 1 hour after administration [1, 7]	degree of edema, 2 hours after administration [1, 7]	degree of edema, Immediately after administration [1, 7]	degree of edema, 1 hour after administration [1, 8]	degree of edema, 2 hours after administration [1, 8]	degree of edema, Immediately after administration [1, 8]	grade of skin lesion (erythema), 1 hour after administration [2, 5]	grade of skin lesion (erythema), 2 hours after administration [2, 5]	grade of skin lesion (erythema), Immediately after administration [2, 5]	grade of skin lesion (erythema), 2 hours after administration [2, 6]	grade of skin lesion (erythema), 2 hours after administration [2, 7]	grade of skin lesion (erythema), 2 hours after administration [2, 8]	Inflammation (H&E), BA % (w/v) 1.0 ([3]; injected rat paw)	bile acid concentration at which stable injectable preparations can be made [4] [%]	further results
C[C@H](CCC(=O)NCC(=O)O)[C@H]1CC[C@H]2[C@@H]3CCC4C[C@H](O)CC[C@]4(C)[C@H]3C[C@H](O)[C@]12C (stereo partly drawn) [GDCA, 2-[[(4R)-4-[(3R,8R,9S,10S,12S,13R,14S,17R)-3,12-dihydroxy-10,13-dimethyl-2,3,4,5,6,7,8,9,11,12,14,15,16,17-tetradecahydro-1H-cyclopenta[a]phenanthren-17-yl]pentanoyl]amino]acetic acid]	+++ (severe edema [+++, (the degree of swelling was 40-60% compared to before the injection)])	++ (moderate edema [++, (the degree of swelling was 20-40% compared to before the injection)])	++ (moderate edema [++, (the degree of swelling was 20-40% compared to before the injection)])	+++ (severe edema [+++, (the degree of swelling was 40-60% compared to before the injection)])	+++ (severe edema [+++, (the degree of swelling was 40-60% compared to before the injection)])	++ (moderate edema [++, (the degree of swelling was 20-40% compared to before the injection)])	++++ (extremely severe edema [++++, (the degree of swelling was 60% or more compared to before the injection)])	++++ (extremely severe edema [++++, (the degree of swelling was 60% or more compared to before the injection)])	++ (moderate edema [++, (the degree of swelling was 20-40% compared to before the injection)])	++++ (extremely severe edema [++++, (the degree of swelling was 60% or more compared to before the injection)])	++++ (extremely severe edema [++++, (the degree of swelling was 60% or more compared to before the injection)])	++ (moderate edema [++, (the degree of swelling was 20-40% compared to before the injection)])	++	++	++	++++	++++	++++	++	≥ 2.4	degree of edema in words ([1]; listed as GDCA 1.0%): moderate; degree of edema in words ([1]; listed as GDCA 2.5%): “severe” and “extremely severe”; skin lesion (erythema) in words ([2]; listed as GDCA 1.0%): Moderate; skin lesion (erythema) in words ([2]; listed as GDCA 2.5%): “severe” and “extremely severe”; grade of skin lesion (erythema), 1 hour after administration [2, 6]: ++++; grade of skin lesion (erythema), Immediately after administration [2, 6]: ++; grade of skin lesion (erythema), 1 hour after administration [2, 7]: ++++; grade of skin lesion (erythema), Immediately after administration [2, 7]: ++; grade of skin lesion (erythema), 1 hour after administration [2, 8]: ++++; grade of skin lesion (erythema), Immediately after administration [2, 8]: ++; Inflammation (H&E), BA % (w/v) 2.5 ([3]; injected rat paw): +++; degree of inflammation (H&E) in words ([3]; rats sacrificed at 3 hours, injected paw): Moderate; bile acid/PPC molar ratio below which a substantially stable formulation did not occur [4]: less than 0.87
C[C@H](CCC(=O)O)[C@H]1CC[C@H]2[C@@H]3[C@H](O)C[C@@H]4C[C@H](O)CC[C@]4(C)[C@H]3C[C@H](O)[C@]12C [CA, (4R)-4-[(3R,5S,7R,8R,9S,10S,12S,13R,14S,17R)-3,7,12-trihydroxy-10,13-dimethyl-2,3,4,5,6,7,8,9,11,12,14,15,16,17-tetradecahydro-1H-cyclopenta[a]phenanthren-17-yl]pentanoic acid]																				≥ 2.2	
C[C@H](CCC(=O)O)[C@H]1CC[C@H]2[C@@H]3C[C@H](O)[C@@H]4C[C@H](O)CC[C@]4(C)[C@H]3CC[C@]12C [HDCA, (4R)-4-[(3R,5R,6S,8S,9S,10R,13R,14S,17R)-3,6-dihydroxy-10,13-dimethyl-2,3,4,5,6,7,8,9,11,12,14,15,16,17-tetradecahydro-1H-cyclopenta[a]phenanthren-17-yl]pentanoic acid]	++ (moderate edema [++, (the degree of swelling was 20-40% compared to before the injection)])	+++ (severe edema [+++, (the degree of swelling was 40-60% compared to before the injection)])	++ (moderate edema [++, (the degree of swelling was 20-40% compared to before the injection)])	++ (moderate edema [++, (the degree of swelling was 20-40% compared to before the injection)])	+++ (severe edema [+++, (the degree of swelling was 40-60% compared to before the injection)])	++ (moderate edema [++, (the degree of swelling was 20-40% compared to before the injection)])	++++ (extremely severe edema [++++, (the degree of swelling was 60% or more compared to before the injection)])	++++ (extremely severe edema [++++, (the degree of swelling was 60% or more compared to before the injection)])	++ (moderate edema [++, (the degree of swelling was 20-40% compared to before the injection)])	++++ (extremely severe edema [++++, (the degree of swelling was 60% or more compared to before the injection)])	++++ (extremely severe edema [++++, (the degree of swelling was 60% or more compared to before the injection)])	++ (moderate edema [++, (the degree of swelling was 20-40% compared to before the injection)])	+	+	+	+++	++++	++++	+++	≥ 2.3	degree of edema in words ([1]; listed as HDCA 2.5%): “severe” and “extremely severe”; skin lesion (erythema) in words ([2]; listed as HDCA 1.0%): Mild; skin lesion (erythema) in words ([2]; listed as HDCA 2.5%): “severe” and “extremely severe”; grade of skin lesion (erythema), 1 hour after administration [2, 6]: +++; grade of skin lesion (erythema), Immediately after administration [2, 6]: +; grade of skin lesion (erythema), 1 hour after administration [2, 7]: ++++; grade of skin lesion (erythema), Immediately after administration [2, 7]: +; grade of skin lesion (erythema), 1 hour after administration [2, 8]: ++++; grade of skin lesion (erythema), Immediately after administration [2, 8]: ++; bile acid/PPC molar ratio below which a substantially stable formulation did not occur [4]: less than 0.95
C[C@H](CCC(=O)NCCS(=O)(=O)O)[C@H]1CC[C@H]2[C@@H]3[C@H](O)C[C@@H]4C[C@H](O)CC[C@]4(C)[C@H]3C[C@H](O)[C@]12C [TCA, 2-[[(4R)-4-[(3R,5S,7R,8R,9S,10S,12S,13R,14S,17R)-3,7,12-trihydroxy-10,13-dimethyl-2,3,4,5,6,7,8,9,11,12,14,15,16,17-tetradecahydro-1H-cyclopenta[a]phenanthren-17-yl]pentanoyl]amino]ethanesulfonic acid]														−		+	+	++	+	≥ 2.5	Inflammation (H&E), BA % (w/v) 2.5 ([3]; injected rat paw): ++; Inflammation (H&E), BA % (w/v) 5.0 ([3]; bile acid single composition 5.0% (w/v), injected rat paw): ++
